Reference: US7507739B2, “6-[(substituted)phenyl]triazolopyrimidines as anticancer agents” (Wyeth, priority 2003, dated 2009)

Columns and labels:
[1] = system: MAP-rich tubulin; assay: Tubulin polymerization test with MAP-rich tubulin; format: biochemical, bovine; settings: 0.3 μM compound, 20 min, fold enhancement over control
Outline: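 Bovine brain MAP-rich tubulin (1.3 mg/mL) in PEM buffer pH 6.9 with 1 mM GTP, compounds at 0.3 μM final (0.3% DMSO), 24° for 60 min. Turbidity read at 340 nm each minute, baseline-subtracted; mean A340 at 20 min divided by solvent control gives fold enhancement.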

[2] = system: HeLa cells; assay: Cell cycle analysis with HeLa cells; format: cell-based, human; settings: 18 hr

CN(C)CCCOc1cc(F)c(-c2c(Cl)nc3ncnn3c2NCC(F)(F)F)c(F)c1.Cl [Example 4a, 5-Chloro-6-{4-[3-(dimethylamino)propoxy]-2,6-difluorophenyl}-N-(2,2,2-trifluoroethyl)[1,2,4]triazolo[1,5-a]pyrimidin-7-amine Hydrogen chloride Salt]
A340 Compound/A340 Control [1]: 8.1 | Percent in Cell Cycle Phase >4N ([2]; 20 nM): 2% | Percent in Cell Cycle Phase Apop ([2]; 20 nM): 6% | Percent in Cell Cycle Phase G1 ([2]; 20 nM): 60% | Percent in Cell Cycle Phase G2/M ([2]; 20 nM): 15% | Percent in Cell Cycle Phase S ([2]; 20 nM): 17% | Percent in Cell Cycle Phase >4N ([2]; 30 nM): 1% | Percent in Cell Cycle Phase Apop ([2]; 30 nM): 44% | Percent in Cell Cycle Phase G1 ([2]; 30 nM): 29% | Percent in Cell Cycle Phase G2/M ([2]; 30 nM): 15% | Percent in Cell Cycle Phase S ([2]; 30 nM): 12% | Percent in Cell Cycle Phase >4N ([2]; 40 nM): 2% | Percent in Cell Cycle Phase Apop ([2]; 40 nM): 65% | Percent in Cell Cycle Phase G1 ([2]; 40 nM): 8% | Percent in Cell Cycle Phase G2/M ([2]; 40 nM): 17% | Percent in Cell Cycle Phase S ([2]; 40 nM): 8% | Percent in Cell Cycle Phase >4N ([2]; 50 nM): 2% | Percent in Cell Cycle Phase Apop ([2]; 50 nM): 54% | Percent in Cell Cycle Phase G1 ([2]; 50 nM): 6% | Percent in Cell Cycle Phase G2/M ([2]; 50 nM): 29% | Percent in Cell Cycle Phase S ([2]; 50 nM): 9% | Percent in Cell Cycle Phase >4N ([2]; 60 nM): 2% | Percent in Cell Cycle Phase Apop ([2]; 60 nM): 64% | Percent in Cell Cycle Phase G1 ([2]; 60 nM): 13% | Percent in Cell Cycle Phase G2/M ([2]; 60 nM): 15% | Percent in Cell Cycle Phase S ([2]; 60 nM): 8% | Percent in Cell Cycle Phase >4N ([2]; 70 nM): 4% | Percent in Cell Cycle Phase Apop ([2]; 70 nM): 25% | Percent in Cell Cycle Phase G1 ([2]; 70 nM): 3% | Percent in Cell Cycle Phase G2/M ([2]; 70 nM): 60% | Percent in Cell Cycle Phase S ([2]; 70 nM): 8% | Percent in Cell Cycle Phase >4N ([2]; 80 nM): 5% | Percent in Cell Cycle Phase Apop ([2]; 80 nM): 20% | Percent in Cell Cycle Phase G1 ([2]; 80 nM): 5% | Percent in Cell Cycle Phase G2/M ([2]; 80 nM): 63% | Percent in Cell Cycle Phase S ([2]; 80 nM): 7% | Percent in Cell Cycle Phase >4N ([2]; 90 nM): 5% | Percent in Cell Cycle Phase Apop ([2]; 90 nM): 22% | Percent in Cell Cycle Phase G1 ([2]; 90 nM): 5% | Percent in Cell Cycle Phase G2/M ([2]; 90 nM): 59% | Percent in Cell Cycle Phase S ([2]; 90 nM): 10% | Percent in Cell Cycle Phase >4N ([2]; 100 nM): 5% | Percent in Cell Cycle Phase Apop ([2]; 100 nM): 23% | Percent in Cell Cycle Phase G1 ([2]; 100 nM): 7% | Percent in Cell Cycle Phase G2/M ([2]; 100 nM): 57% | Percent in Cell Cycle Phase S ([2]; 100 nM): 9% | Percent in Cell Cycle Phase >4N ([2]; 110 nM): 5% | Percent in Cell Cycle Phase Apop ([2]; 110 nM): 23% | Percent in Cell Cycle Phase G1 ([2]; 110 nM): 6% | Percent in Cell Cycle Phase G2/M ([2]; 110 nM): 56% | Percent in Cell Cycle Phase S ([2]; 110 nM): 10% | Percent in Cell Cycle Phase >4N ([2]; 120 nM): 4% | Percent in Cell Cycle Phase Apop ([2]; 120 nM): 27% | Percent in Cell Cycle Phase G1 ([2]; 120 nM): 7% | Percent in Cell Cycle Phase G2/M ([2]; 120 nM): 53% | Percent in Cell Cycle Phase S ([2]; 120 nM): 10%

CC[C@]1(O)C[C@H]2CN(CCc3c([nH]c4ccccc34)[C@@](C(=O)OC)(c3cc4c(cc3OC)N(C=O)[C@H]3[C@@](O)(C(=O)OC)[C@H](OC(C)=O)[C@]5(CC)C=CCN6CC[C@]43[C@@H]65)C2)C1 [Vincristine, reference compound]
A340 Compound/A340 Control [1]: 0 | Percent in Cell Cycle Phase >4N ([2]; 1 nM): 2% | Percent in Cell Cycle Phase Apop ([2]; 1 nM): 6% | Percent in Cell Cycle Phase G1 ([2]; 1 nM): 57% | Percent in Cell Cycle Phase G2/M ([2]; 1 nM): 17% | Percent in Cell Cycle Phase S ([2]; 1 nM): 18% | Percent in Cell Cycle Phase >4N ([2]; 2 nM): 2% | Percent in Cell Cycle Phase Apop ([2]; 2 nM): 8% | Percent in Cell Cycle Phase G1 ([2]; 2 nM): 55% | Percent in Cell Cycle Phase G2/M ([2]; 2 nM): 18% | Percent in Cell Cycle Phase S ([2]; 2 nM): 18% | Percent in Cell Cycle Phase >4N ([2]; 4 nM): 2% | Percent in Cell Cycle Phase Apop ([2]; 4 nM): 9% | Percent in Cell Cycle Phase G1 ([2]; 4 nM): 50% | Percent in Cell Cycle Phase G2/M ([2]; 4 nM): 23% | Percent in Cell Cycle Phase S ([2]; 4 nM): 17% | Percent in Cell Cycle Phase >4N ([2]; 6 nM): 3% | Percent in Cell Cycle Phase Apop ([2]; 6 nM): 11% | Percent in Cell Cycle Phase G1 ([2]; 6 nM): 45% | Percent in Cell Cycle Phase G2/M ([2]; 6 nM): 27% | Percent in Cell Cycle Phase S ([2]; 6 nM): 15% | Percent in Cell Cycle Phase >4N ([2]; 8 nM): 3% | Percent in Cell Cycle Phase Apop ([2]; 8 nM): 12% | Percent in Cell Cycle Phase G1 ([2]; 8 nM): 40% | Percent in Cell Cycle Phase G2/M ([2]; 8 nM): 32% | Percent in Cell Cycle Phase S ([2]; 8 nM): 14% | Percent in Cell Cycle Phase >4N ([2]; 10 nM): 3% | Percent in Cell Cycle Phase Apop ([2]; 10 nM): 16% | Percent in Cell Cycle Phase G1 ([2]; 10 nM): 27% | Percent in Cell Cycle Phase G2/M ([2]; 10 nM): 41% | Percent in Cell Cycle Phase S ([2]; 10 nM): 13% | Percent in Cell Cycle Phase >4N ([2]; 15 nM): 4% | Percent in Cell Cycle Phase Apop ([2]; 15 nM): 19% | Percent in Cell Cycle Phase G1 ([2]; 15 nM): 20% | Percent in Cell Cycle Phase G2/M ([2]; 15 nM): 44% | Percent in Cell Cycle Phase S ([2]; 15 nM): 14% | Percent in Cell Cycle Phase >4N ([2]; 20 nM): 4% | Percent in Cell Cycle Phase Apop ([2]; 20 nM): 18% | Percent in Cell Cycle Phase G1 ([2]; 20 nM): 15% | Percent in Cell Cycle Phase G2/M ([2]; 20 nM): 51% | Percent in Cell Cycle Phase S ([2]; 20 nM): 12% | Percent in Cell Cycle Phase >4N ([2]; 25 nM): 4% | Percent in Cell Cycle Phase Apop ([2]; 25 nM): 17% | Percent in Cell Cycle Phase G1 ([2]; 25 nM): 14% | Percent in Cell Cycle Phase G2/M ([2]; 25 nM): 52% | Percent in Cell Cycle Phase S ([2]; 25 nM): 13% | Percent in Cell Cycle Phase >4N ([2]; 30 nM): 4% | Percent in Cell Cycle Phase Apop ([2]; 30 nM): 19% | Percent in Cell Cycle Phase G1 ([2]; 30 nM): 12% | Percent in Cell Cycle Phase G2/M ([2]; 30 nM): 55% | Percent in Cell Cycle Phase S ([2]; 30 nM): 11% | Percent in Cell Cycle Phase >4N ([2]; 40 nM): 4% | Percent in Cell Cycle Phase Apop ([2]; 40 nM): 18% | Percent in Cell Cycle Phase G1 ([2]; 40 nM): 8% | Percent in Cell Cycle Phase G2/M ([2]; 40 nM): 57% | Percent in Cell Cycle Phase S ([2]; 40 nM): 13%
